Common to all, as to test: Transient transactivation assay (XREM-Luc, HepG2)
Assay type in all cases: cell-based

One experiment concerns the target Medaka VDRα (Oryzias latipes, UniProt B2CCA0). Conditions: 100 μM LCA. The protocol:
(§1) HepG2 cells (American Type Culture Collection #HB-8065) were cultured in T75 flasks with vented caps (Corning Life Sciences, Corning, NY) using Minimum Essential Medium (MEM) with phenol red supplemented with 10% fetal bovine serum, 1 mM sodium pyruvate, and 1X MEM non-essential amino acids. Cells were maintained following standard protocols in a 5% CO2 incubator set at 37°C, and split when 80–90% confluent.
(§2) For the transient transactivation assays, HepG2 cells were seeded in 96-well tissue culture plates at a density of 2.5x10^4 cells per well in complete phenol red-free MEM, and allowed to recover overnight. Transfections were performed the following day using Lipofectamine 2000 (Life Technologies, Grand Island, NY) as described previously. For functional comparisons, 89.7 ng/well of full-length pSG5-VDR was co-transfected with 19.2 ng/well human XREM-Luc reporter and 4.5 ng/well of pRL-CMV as an internal luciferase control. Coregulator studies included the addition of 18.3 ng/well of human coregulators (pCDNA-RXRWT, pCDNA-RXRAF2, pSG5-SRC1, pSG5-GRIP1 or pSG5-ACTR) where indicated. […] Controls include 120 nM 1,25D3 as a positive control, and ethanol as a vehicle control. Twenty-four hours post-exposure cells were tested for luciferase activity using the Dual-Glo Luciferase Assay System (Promega Corporation, Madison, WI) according to the manufacturer’s protocols. Luciferase data were first normalized to the pRL-CMV internal luciferase control. LCA-mediated VDR transactivation (fold activation) was calculated as the ratio of the VDR luciferase response relative to the empty vector control. To calculate the impact of coregulators on VDR transactivation, VDR response in the presence of coregulators was normalized to VDR alone. All experiments were repeated 3 times and conducted as groups of 4 replicate wells. VDR response in the absence of coregulators was analyzed using a 1-way ANOVA followed by Dunnett’s multiple comparisons test. To examine the effects of different coregulators on VDR activation, data were analyzed using a 2-way ANOVA followed by Bonferroni’s multiple comparisons test in GraphPad Prism (GraphPad Inc, San Diego, CA).

For a further experiment, the target named is T1, Medaka VDRβ (Oryzias latipes, UniProt B2CCA1).
T1 sequence (B2CCA1 1-425): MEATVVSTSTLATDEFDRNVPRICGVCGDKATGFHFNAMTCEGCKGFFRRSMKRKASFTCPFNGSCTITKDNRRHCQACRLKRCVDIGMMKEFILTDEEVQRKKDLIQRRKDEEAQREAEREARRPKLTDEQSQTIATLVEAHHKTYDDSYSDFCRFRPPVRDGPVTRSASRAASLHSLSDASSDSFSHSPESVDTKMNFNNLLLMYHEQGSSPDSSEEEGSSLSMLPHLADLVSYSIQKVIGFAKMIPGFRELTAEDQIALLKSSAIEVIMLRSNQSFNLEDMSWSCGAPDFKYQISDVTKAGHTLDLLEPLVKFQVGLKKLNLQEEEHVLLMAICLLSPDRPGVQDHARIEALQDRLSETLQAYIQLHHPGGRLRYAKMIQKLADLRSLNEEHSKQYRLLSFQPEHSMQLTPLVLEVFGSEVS
T1 sequence (P19793 1-462 partner): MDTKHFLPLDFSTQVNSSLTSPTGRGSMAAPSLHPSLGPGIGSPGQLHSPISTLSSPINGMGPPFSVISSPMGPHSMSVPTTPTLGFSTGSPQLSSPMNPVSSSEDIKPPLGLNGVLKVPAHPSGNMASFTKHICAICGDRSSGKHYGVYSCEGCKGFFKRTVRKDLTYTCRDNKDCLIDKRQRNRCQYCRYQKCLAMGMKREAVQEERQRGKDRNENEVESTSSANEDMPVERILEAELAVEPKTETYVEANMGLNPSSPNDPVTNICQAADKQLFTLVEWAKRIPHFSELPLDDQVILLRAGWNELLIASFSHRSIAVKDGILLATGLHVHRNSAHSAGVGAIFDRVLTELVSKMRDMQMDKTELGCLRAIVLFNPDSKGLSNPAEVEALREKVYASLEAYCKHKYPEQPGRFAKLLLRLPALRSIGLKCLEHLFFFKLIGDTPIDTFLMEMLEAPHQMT
Conditions: 100 μM LCA. The protocol: as §1, §2

The next experiment addresses T2, Zebrafish VDRα (Danio rerio, UniProt Q9PTN2).
T2 construct: 89.7 ng/well of full-length pSG5-VDR was co-transfected; expressed in transfected cells; host or cells: HepG2
T2 sequence (Q9PTN2 1-453): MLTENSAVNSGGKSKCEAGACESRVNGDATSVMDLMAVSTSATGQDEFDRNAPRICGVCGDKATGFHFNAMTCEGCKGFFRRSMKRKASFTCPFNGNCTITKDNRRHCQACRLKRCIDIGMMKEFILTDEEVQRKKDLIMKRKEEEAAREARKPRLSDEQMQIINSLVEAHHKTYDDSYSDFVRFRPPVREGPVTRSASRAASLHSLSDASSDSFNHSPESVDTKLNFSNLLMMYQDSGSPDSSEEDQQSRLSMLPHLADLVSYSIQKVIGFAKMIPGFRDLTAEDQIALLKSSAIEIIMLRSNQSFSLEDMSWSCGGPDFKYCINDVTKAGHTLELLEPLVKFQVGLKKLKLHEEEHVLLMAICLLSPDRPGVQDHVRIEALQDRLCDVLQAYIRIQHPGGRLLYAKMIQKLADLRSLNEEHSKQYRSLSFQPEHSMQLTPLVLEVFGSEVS
Conditions: 100 μM LCA. The method, then:
as §1, §2

The next experiment deals with T3, Zebrafish VDRβ (Danio rerio, UniProt Q1L673).
T3 sequence (Q1L673 1-422): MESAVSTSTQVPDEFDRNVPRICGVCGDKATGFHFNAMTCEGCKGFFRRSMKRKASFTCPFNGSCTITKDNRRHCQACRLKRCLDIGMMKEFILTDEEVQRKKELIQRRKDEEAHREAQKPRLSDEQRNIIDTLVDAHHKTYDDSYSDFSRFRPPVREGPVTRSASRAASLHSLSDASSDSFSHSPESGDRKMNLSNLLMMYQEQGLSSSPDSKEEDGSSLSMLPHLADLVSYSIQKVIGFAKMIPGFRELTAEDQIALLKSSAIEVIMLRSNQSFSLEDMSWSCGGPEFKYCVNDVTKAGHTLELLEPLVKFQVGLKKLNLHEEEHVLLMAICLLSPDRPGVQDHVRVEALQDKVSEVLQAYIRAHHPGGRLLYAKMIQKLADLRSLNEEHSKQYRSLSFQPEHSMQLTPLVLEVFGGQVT
More on the design: expressed in transfected cells; host or cells: HepG2. Conditions: 100 μM LCA; co-transfected human RXRWT; vs VDR alone. The protocol:
as §1
For the transient transactivation assays, HepG2 cells were seeded in 96-well tissue culture plates at a density of 2.5x10^4 cells per well in complete phenol red-free MEM, and allowed to recover overnight. Transfections were performed the following day using Lipofectamine 2000 (Life Technologies, Grand Island, NY) as described previously. […] LCA-mediated VDR transactivation (fold activation) was calculated as the ratio of the VDR luciferase response relative to the empty vector control. […] VDR response in the absence of coregulators was analyzed using a 1-way ANOVA followed by Dunnett’s multiple comparisons test. To examine the effects of different coregulators on VDR activation, data were analyzed using a 2-way ANOVA followed by Bonferroni’s multiple comparisons test in GraphPad Prism (GraphPad Inc, San Diego, CA).

Setting [1] is: co-transfected human RXRWT, vs VDR alone.
Setting [2] is: compared to either coregulator individually.

Chain of Medaka VDRα (B2CCA0 entry or part of it, one chain of several): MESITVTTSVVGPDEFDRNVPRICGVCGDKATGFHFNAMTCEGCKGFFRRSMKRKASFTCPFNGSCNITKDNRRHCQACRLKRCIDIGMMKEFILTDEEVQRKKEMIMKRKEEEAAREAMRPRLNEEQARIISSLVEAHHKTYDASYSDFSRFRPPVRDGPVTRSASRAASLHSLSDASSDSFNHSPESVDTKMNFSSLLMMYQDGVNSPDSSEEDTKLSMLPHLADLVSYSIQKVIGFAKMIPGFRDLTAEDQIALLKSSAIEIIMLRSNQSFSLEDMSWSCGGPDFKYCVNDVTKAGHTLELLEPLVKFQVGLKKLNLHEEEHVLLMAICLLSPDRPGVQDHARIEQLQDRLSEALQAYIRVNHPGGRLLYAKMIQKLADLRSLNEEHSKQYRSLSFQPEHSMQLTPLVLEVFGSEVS

`C[C@H](CCC(=O)O)[C@H]1CC[C@H]2[C@@H]3CC[C@@H]4C[C@H](O)CC[C@]4(C)[C@H]3CC[C@]12C` [LCA, 5β-cholanic acid-3α-ol]: the “Effect of exogenous human RXRWT on VDR transactivation” value on Medaka VDRα (setting [1]), on Medaka VDRβ (setting [1]), at Zebrafish VDRα (setting [1]) and at Zebrafish VDRβ was “significantly enhanced transactivation” in each case. For the same compound, the “Effect of RXRWT+SRC1 or RXRWT+GRIP1 on VDR transactivation” value at Medaka VDRα (setting [2]), on Medaka VDRβ (setting [2]) and on Zebrafish VDRα (setting [2]) was “significantly enhanced VDR transactivation” each time.

(Values after paper PMC5152921, “Evolutionary and Functional Diversification of the Vitamin D Receptor-Lithocholic Acid Partnership” (PLoS ONE, 2016).)
